Data taken from US4440779A, “Tricyclic derivatives of substituted pyrrole acids as analgesic and anti-inflammatory agents” (Merck & Co., Inc., priority 1982, dated 1984).

Tests used:
[1] = tested on: edema induced by carragenin in rat foot; assay: rat foot edema assay (carragenin-induced edema, C.F.E.); assay type: in vivo, rat (Sprague Dawley); settings: 1 h before carragenin, read at 3 h; for inhibition in vivo at 3 mg/kg: 3 mg/kg oral; for inhibition in vivo at 10 mg/kg: 10 mg/kg oral; for inhibition in vivo at 20 mg/kg: 20 mg/kg oral; for inhibition in vivo at 30 mg/kg: 30 mg/kg oral
Protocol: The rat foot edema assay for determining anti-inflammatory activity is based on the ability of the compounds of Formula I to inhibit the edema induced by the injection of an inflammatory (phlogistic) agent into the tissues of the foot of a rat. Several groups of six male rats (Sprague Dawley strain, 150±30 g each) are given orally the compounds to be tested one hour before 0.1 ml of a 1% suspension of carragenin in 0.5% methocel is injected into the planar surface of each rat's right hind paws. Immediately and again three hours later, the foot volume is measured and recorded. The difference between the initial and final volumes is a measurement of the edema produced. Usually the compounds to be tested are suspended or dissolved in 0.5% methocel, and their activities measured against that produced by a known anti-inflammatory agent e.g., zomepirac (U.S. Pat. No. 3,952,012) according to standard procedure. The activity of a tested compound is also compared with that produced by a "control" rat which receives only the methocel solution. A test of 3 mg/kg, 10 mg/kg plus one dose of 30 mg/kg are usually given.

gastric mucosa = assay: Gastric Hemorrhage Lesion Formation Assay (GHLF); assay type: in vivo, rat (Sprague-Dawley); settings: fasted, 4 h
Protocol: In other words, they induce less gastric irritation than Zompirac. The GHLF test is conducted according to the following procedure:
Rats (Sprague-Dawley, Males, 120-180 gm) are fasted overnight and dosed orally with drug suspended in 0.5% methylcellulose. The drug concentration is adjusted so that each animal received 1.0 ml/100 gm body weight. Four hours later the animals are killed by asphixiation in carbon dioxide, the stomachs removed, cut open and everted. The mucosal lining is washed and examined under 3X magnification. The lesions are identified as perforations of the gastric mucosa, many of which perforate right through the wall of the stomach.
The results are expressed in two ways, the average number of lesions per stomach, and the number of animals in the group showing at least one lesion.

| Animals with lesions (gastric mucosa; 90 mg/kg oral) | Ave. lesions per animal (gastric mucosa; 90 mg/kg oral) | Compound | inhibition in vivo at 3 mg/kg [1] [%] | inhibition in vivo at 10 mg/kg [1] [%] | inhibition in vivo at 20 mg/kg [1] [%] | inhibition in vivo at 30 mg/kg [1] [%] | further results |
| --- | --- | --- | --- | --- | --- | --- | --- |
| 2/6 | 0.33 | Cc1ccc2c(c1)OCc1cc(CC(=O)O)n(C)c1C2=O [7-CH3 / OCH2 / H, 1,7-dimethyl-4,10-dihydro-10-oxo-1H[1]benzoxepino[4,3-b]-pyrrole-2-acetic acid] | 32.1 | 39.9 | 42.6 | – | Animals with lesions (gastric mucosa; 30 mg/kg oral): 0/6; Ave. lesions per animal (gastric mucosa; 30 mg/kg oral): 0; Animals with lesions (gastric mucosa; 60 mg/kg oral): 1/6; Ave. lesions per animal (gastric mucosa; 60 mg/kg oral): 0.16; Animals with lesions (gastric mucosa; 120 mg/kg oral): 4/6; Ave. lesions per animal (gastric mucosa; 120 mg/kg oral): 3.3 |
| – | – | CC(C(=O)O)c1cc2c(n1C)C(=O)c1ccc(Cl)cc1CC2 (stereo not drawn) [7-Cl / CH2CH2 / CH3, 1,4,5,10-Tetrahydro-7-chloro-1,α-dimethyl-10-oxobenzocyclohepta[1,2-b]pyrrole-2-acetic acid] | – | – | 36.8 | 59 | – |
| – | – | Cn1c(CC(=O)O)cc2c1C(=O)c1ccc(Cl)cc1CC2 [7-Cl / CH2CH2 / H] | 29.9 | 41.5 | – | 57.5 | Animals with lesions (gastric mucosa; 100 mg/kg oral): 1/5; Ave. lesions per animal (gastric mucosa; 100 mg/kg oral): 0.2; Animals with lesions (gastric mucosa; 300 mg/kg oral): 0/5; Ave. lesions per animal (gastric mucosa; 300 mg/kg oral): 0; Animals with lesions (gastric mucosa; 600 mg/kg oral): 4/5; Ave. lesions per animal (gastric mucosa; 600 mg/kg oral): 1.8 |
| – | – | Cn1c(CC(=O)O)cc2c1C(=O)c1ccc(Cl)cc1CO2 [7-Cl / CH2O / H] | – | – | 50 | – | – |
| – | – | CC(C(=O)O)c1cc2c(n1C)C(=O)c1ccc(Cl)cc1OC2 (stereo not shown) [7-Cl / OCH2 / CH3] | – | – | – | 60 | – |
| 5/6 | 5.0 | Cn1c(CC(=O)O)cc2c1C(=O)c1ccc(Cl)cc1OC2 [7-Cl / OCH2 / H, 7-chloro-4,10-dihydro-1-methyl-10-oxo-1H-[1]benzoxepino[4,3-b]pyrrole-2-acetic acid] | 46 | 64 | – | 54 | Animals with lesions (gastric mucosa; 60 mg/kg oral): 0/6; Ave. lesions per animal (gastric mucosa; 60 mg/kg oral): 0 |
| – | – | Cn1c(CC(=O)O)cc2c1C(=O)c1ccc(Cl)cc1SC2 [7-Cl / SCH2 / H, 7-Chloro-4,10-dihydro-1-methyl-10-oxo-1H-[1]benzothiepino[4,3-b]pyrrole-2-acetic acid] | – | – | – | 51 | – |
| – | – | Cn1c(CC(=O)O)cc2c1C(=O)c1ccc(F)cc1OC2 [7-F / OCH2 / H] | – | 31 | – | 40 | – |
| 2/6 | 1.0 | COc1ccc2c(c1)OCc1cc(CC(=O)O)n(C)c1C2=O [7-OCH3 / OCH2 / H, 7-methoxy-4,10-dihydro-1-methyl-10-oxo-1H[1]-benzoxepino[4,3-b]pyrrole-2-acetic acid] | 44 | – | – | 61 | Animals with lesions (gastric mucosa; 120 mg/kg oral): 4/6; Ave. lesions per animal (gastric mucosa; 120 mg/kg oral): 4.0 |
